Legend:
Assay in all cases: relative viability (nuclei count vs DMSO), 5 days (fraction); higher = more cells survive
[1] = compound: CC(O)(CS(=O)(=O)c1ccc(F)cc1)C(=O)Nc1ccc(C#N)c(C(F)(F)F)c1 [Bicalutamide] + CC1(C)CCC(c2ccc(Cl)cc2)=C(CN2CCN(c3ccc(C(=O)NS(=O)(=O)c4ccc(N[C@H](CCN5CCOCC5)CSc5ccccc5)c(S(=O)(=O)C(F)(F)F)c4)cc3)CC2)C1 [Navitoclax] (partner 0.5 µM)
Summary of the method: (§1)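 Lung cancer cell lines in 1536-well plates were dosed by pin tool the day after seeding, either with one drug alone or with a fixed anchor-drug dose plus five library-drug doses (not always all listed) in √10 steps. After 5 days, cells were fixed and their nuclei stained in one step (final 0.05% Triton X-100, 1% formaldehyde, 1 ug/ml Hoechst), then counted on 4× images. Relative viability is the nuclei count in treated wells divided by that in vehicle wells. Values are medians of duplicate plates.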

[2] = compound: CC(O)(CS(=O)(=O)c1ccc(F)cc1)C(=O)Nc1ccc(C#N)c(C(F)(F)F)c1 [Bicalutamide] + Nc1ncn([C@H]2C[C@H](O)[C@@H](CO)O2)c(=O)n1 [Decitabine] (partner 2 µM)
Summary of the method: as §1

[3] = compound: C(C(=O)C(=O)O)Br [Bromopyruvate] + Nc1ncn([C@H]2C[C@H](O)[C@@H](CO)O2)c(=O)n1 [Decitabine] (partner 2 µM)
Summary of the method: as §1

[4] = compound: C(C(=O)C(=O)O)Br [Bromopyruvate] + COc1cc2c(Oc3ccc(NC(=O)C4(C(=O)Nc5ccc(F)cc5)CC4)cc3F)ccnc2cc1OCCCN1CCOCC1 [Foretinib] (partner 0.25 µM)
Summary of the method: as §1

Cell Line	relative viability ([1]; first compound 0.08 µM)	relative viability ([1]; first compound 0.253 µM)	relative viability ([1]; first compound 0.8 µM)	relative viability ([1]; first compound 2.53 µM)	relative viability ([2]; first compound 0.08 µM)	relative viability ([2]; first compound 0.253 µM)	relative viability ([2]; first compound 0.8 µM)	relative viability ([2]; first compound 2.53 µM)	relative viability ([3]; first compound 1 µM)	relative viability ([3]; first compound 3.162 µM)	relative viability ([3]; first compound 10 µM)	relative viability ([3]; first compound 31.62 µM)	relative viability ([3]; first compound 100 µM)	relative viability ([4]; first compound 1 µM)	relative viability ([4]; first compound 3.162 µM)	relative viability ([4]; first compound 10 µM)	relative viability ([4]; first compound 31.62 µM)	relative viability ([4]; first compound 100 µM)
HCC-827	1.04	0.971	1.02	1.02	0.337	0.252	0.384	0.351	0.356	0.295	0.305	0.331	0.266	1.05	1.02	1.02	1.08	1.08
HOP-62	1.03	1.12	1.03	0.982	0.25	0.2	0.241	0.221	0.217	0.229	0.186	0.211	0.138	1.12	1.17	1.12	0.95	0.815
IA-LM	0.945	0.876	0.99	0.751										1.12	1.19	1.07	1.17	0.914
LC-2-ad	0.484	0.484	0.449	0.475	0.808	0.831	0.857	0.909	0.856	0.726	0.797	0.872	0.695	0.922	0.99	1.01	0.914	0.988
LCLC-97TM1	0.558	0.379	0.573	0.572	0.222	0.202	0.305	0.234	0.246	0.226	0.263	0.243	0.16	0.843	0.916	0.917	0.965	1.02
LCLC-103H					0.714	0.717	0.717	0.756	0.757	0.764	0.797	0.77	0.825	0.568	0.748	0.97	0.797	1.02
LK-2	0.844	0.798	1.18	0.841	0.345	0.238	0.329	0.305	0.277	0.232	0.287	0.325	0.272	0.865	1.35	1.57	1.12	0.894
LOU-NH91	0.676	0.545	0.865	0.818	0.769	0.817	0.83	0.836	0.868	0.79	0.799	0.876	0.861	0.945	0.903	0.999	0.92	0.984
LU99A	0.756	0.779	1.01	0.742	0.96	0.896	1.02	0.719	0.894	0.903	0.979	0.949	0.95	0.834	0.81	0.812	0.773	0.846
LXF-289	0.951	0.952	0.999	0.931	0.346	0.398	0.403	0.403	0.398	0.417	0.419	0.388	0.397	1.02	0.997	0.965	1.01	1.04
NCI-H23	0.86	0.642	0.949	0.754	0.312	0.36	0.311	0.297	0.299	0.294	0.308	0.277	0.303	0.895	0.851	0.983	0.885	0.296
NCI-H358					0.224	0.224	0.193	0.204	0.2	0.21	0.223	0.247	0.238	0.764	0.71	0.761	0.598	0.653
NCI-H522					0.585	0.575	0.71	0.632	0.604	0.705	0.619	0.699	0.603					
NCI-H650					0.318	0.308	0.333	0.335	0.295	0.322	0.316	0.281	0.26	1.04	1.03	1.16	1.01	0.948
NCI-H661					0.546	0.51	0.557	0.549	0.505	0.571	0.654	0.546	0.523	1.02	1.02	1.05	1.02	0.994
NCI-H1299	1.02	1.04	1.03	1.04										1.16	1.13	1.16	1.14	1.09
NCI-H1563														0.869	1.11	0.946	0.879	0.901
NCI-H1648							0.475	0.458	0.465	0.572	0.454	0.511	0.491					
NCI-H1703	0.998	0.985	1.45	0.484										0.327	0.397	0.364	0.367	0.356
NCI-H1792	0.5	0.619	0.77	0.674	0.543	0.466	0.618	0.548	0.57	0.614	0.45	0.498	0.555					
NCI-H2228	0.636	0.863	0.856	0.959										0.798	0.82	0.941	0.754	0.794
NCI-H2342					0.742	0.717	0.756	0.843	0.746	0.682	0.676	0.695	0.629	1.09	1.18	1.01	0.853	1.04
SW 900					0.416	0.413	0.5	0.476	0.451	0.485	0.462	0.419	0.449	0.902	0.955	0.665	0.84	0.898

Source: the supplement of paper PMC10307832
